Legend:
Experiment in all cases: cells
NCI-H720 = assay type: functional, cell-based, Homo sapiens; settings: Homo sapiens, NCI-H720
Description: SANGER: Inhibition of human NCI-H720 cell growth in a cell viability assay.

LB831-BLC = assay type: functional, cell-based, Homo sapiens; settings: Homo sapiens, LB831-BLC
Description: SANGER: Inhibition of human LB831-BLC cell growth in a cell viability assay.

HD-MY-Z = assay type: functional, cell-based, Homo sapiens; settings: Homo sapiens, HD-MY-Z
Description: SANGER: Inhibition of human HD-MY-Z cell growth in a cell viability assay.

GI-ME-N = assay type: functional, cell-based, Homo sapiens; settings: Homo sapiens, GI-ME-N
Description: SANGER: Inhibition of human GI-ME-N cell growth in a cell viability assay.

ONS-76 = assay type: functional, cell-based, Homo sapiens; settings: Homo sapiens, ONS-76
Description: SANGER: Inhibition of human ONS-76 cell growth in a cell viability assay.

NCI-H1650 = assay type: functional, cell-based, Homo sapiens; settings: Homo sapiens, NCI-H1650
Description: SANGER: Inhibition of human NCI-H1650 cell growth in a cell viability assay.

CW-2 = assay type: functional, cell-based, Homo sapiens; settings: Homo sapiens, CW-2
Description: SANGER: Inhibition of human CW-2 cell growth in a cell viability assay.

BB49-HNC = assay type: functional, cell-based, Homo sapiens; settings: Homo sapiens, BB49-HNC
Description: SANGER: Inhibition of human BB49-HNC cell growth in a cell viability assay.

MHH-NB-11 = assay type: functional, cell-based, Homo sapiens; settings: Homo sapiens, MHH-NB-11
Description: SANGER: Inhibition of human MHH-NB-11 cell growth in a cell viability assay.

KM12 = assay type: functional, cell-based, Homo sapiens; settings: Homo sapiens, KM12
Description: SANGER: Inhibition of human KM12 cell growth in a cell viability assay.

MOLT-4 = assay type: functional, cell-based, Homo sapiens; settings: Homo sapiens, MOLT-4
Description: SANGER: Inhibition of human MOLT-4 cell growth in a cell viability assay.

CCRF-CEM = assay type: functional, cell-based, Homo sapiens; settings: Homo sapiens, CCRF-CEM
Description: SANGER: Inhibition of human CCRF-CEM cell growth in a cell viability assay.

AM-38 = assay type: functional, cell-based, Homo sapiens; settings: Homo sapiens, AM-38
Description: SANGER: Inhibition of human AM-38 cell growth in a cell viability assay.

MEG-01 = assay type: functional, cell-based, Homo sapiens; settings: Homo sapiens, MEG-01
Description: SANGER: Inhibition of human MEG-01 cell growth in a cell viability assay.

LB996-RCC = assay type: functional, cell-based, Homo sapiens; settings: Homo sapiens, LB996-RCC
Description: SANGER: Inhibition of human LB996-RCC cell growth in a cell viability assay.

DEL = assay type: functional, cell-based, Homo sapiens; settings: Homo sapiens, DEL
Description: SANGER: Inhibition of human DEL cell growth in a cell viability assay.

A253 cell line = assay type: functional, cell-based, Homo sapiens; settings: Homo sapiens, A253
Description: SANGER: Inhibition of human A253 cell growth in a cell viability assay.

Lu-65 = assay type: functional, cell-based, Homo sapiens; settings: Homo sapiens, Lu-65
Description: SANGER: Inhibition of human LU-65 cell growth in a cell viability assay.

RCC10RGB = assay type: functional, cell-based, Homo sapiens; settings: Homo sapiens, RCC10RGB
Description: SANGER: Inhibition of human RCC10RGB cell growth in a cell viability assay.

KNS-81-FD = assay type: functional, cell-based, Homo sapiens; settings: Homo sapiens, KNS-81-FD
Description: SANGER: Inhibition of human KNS-81-FD cell growth in a cell viability assay.

HL-60 = assay type: functional, cell-based, Homo sapiens; settings: Homo sapiens, HL-60
Description: SANGER: Inhibition of human HL-60 cell growth in a cell viability assay.

SJSA-1 = assay type: functional, cell-based, Homo sapiens; settings: Homo sapiens, SJSA-1
Description: SANGER: Inhibition of human SJSA-1 cell growth in a cell viability assay.

D283 Med = assay type: functional, cell-based, Homo sapiens; settings: Homo sapiens, D283 Med
Description: SANGER: Inhibition of human D-283MED cell growth in a cell viability assay.

HCC1187 = assay type: functional, cell-based, Homo sapiens; settings: Homo sapiens, HCC1187
Description: SANGER: Inhibition of human HCC1187 cell growth in a cell viability assay.

PSN1 = assay type: functional, cell-based, Homo sapiens; settings: Homo sapiens, PSN1
Description: SANGER: Inhibition of human PSN1 cell growth in a cell viability assay.

NCI-H23 = assay type: functional, cell-based, Homo sapiens; settings: Homo sapiens, NCI-H23
Description: SANGER: Inhibition of human NCI-H23 cell growth in a cell viability assay.

SK-PN-DW = assay type: functional, cell-based, Homo sapiens; settings: Homo sapiens, SK-PN-DW
Description: SANGER: Inhibition of human SK-PN-DW cell growth in a cell viability assay.

K5 = assay type: functional, cell-based, Homo sapiens; settings: Homo sapiens, K5
Description: SANGER: Inhibition of human K5 cell growth in a cell viability assay.

HT-144 = assay type: functional, cell-based, Homo sapiens; settings: Homo sapiens, HT-144
Description: SANGER: Inhibition of human HT-144 cell growth in a cell viability assay.

LXF-289 cell line = assay type: functional, cell-based; settings: Homo sapiens
Description: SANGER: Inhibition of human LXF-289 cell growth in a cell viability assay.

MHH-PREB-1 = assay type: functional, cell-based, Homo sapiens; settings: Homo sapiens, MHH-PREB-1
Description: SANGER: Inhibition of human MHH-PREB-1 cell growth in a cell viability assay.

UACC-257 = assay type: functional, cell-based, Homo sapiens; settings: Homo sapiens, UACC-257
Description: SANGER: Inhibition of human UACC-257 cell growth in a cell viability assay.

NEC8 = assay type: functional, cell-based, Homo sapiens; settings: Homo sapiens, NEC8
Description: SANGER: Inhibition of human NEC8 cell growth in a cell viability assay.

MV4-11 = assay type: functional, cell-based, Homo sapiens, MV-4-11; settings: Homo sapiens, MV4-11
Description: SANGER: Inhibition of human MV-4-11 cell growth in a cell viability assay.

GR-ST = assay type: functional, cell-based, Homo sapiens; settings: Homo sapiens, GR-ST
Description: SANGER: Inhibition of human GR-ST cell growth in a cell viability assay.

J-RT3-T3-5 = assay type: functional, cell-based, Homo sapiens; settings: Homo sapiens, J-RT3-T3-5
Description: SANGER: Inhibition of human J-RT3-T3-5 cell growth in a cell viability assay.

COLO-829 = assay type: functional, cell-based, Homo sapiens; settings: Homo sapiens, COLO-829
Description: SANGER: Inhibition of human COLO-829 cell growth in a cell viability assay.

NH-12 = assay type: functional, cell-based, Homo sapiens; settings: Homo sapiens, NH-12
Description: SANGER: Inhibition of human NH-12 cell growth in a cell viability assay.

LS-1034 = assay type: functional, cell-based, Homo sapiens; settings: Homo sapiens, LS-1034
Description: SANGER: Inhibition of human LS-1034 cell growth in a cell viability assay.

KALS-1 = assay type: functional, cell-based, Homo sapiens; settings: Homo sapiens, KALS-1; read-out: IC50
Description: SANGER: Inhibition of human KALS-1 cell growth in a cell viability assay.

KG-1 = assay type: functional, cell-based, Homo sapiens; settings: Homo sapiens, KG-1
Description: SANGER: Inhibition of human KG-1 cell growth in a cell viability assay.

SK-N-DZ = assay type: functional, cell-based, Homo sapiens; settings: Homo sapiens, SK-N-DZ; read-out: IC50
Description: SANGER: Inhibition of human SK-N-DZ cell growth in a cell viability assay.

RPMI-8226 = assay type: functional, cell-based, Homo sapiens; settings: Homo sapiens, RPMI-8226
Description: SANGER: Inhibition of human RPMI-8226 cell growth in a cell viability assay.

SK-LMS-1 = assay type: functional, cell-based, Homo sapiens; settings: Homo sapiens, SK-LMS-1
Description: SANGER: Inhibition of human SK-LMS-1 cell growth in a cell viability assay.

EKVX = assay type: functional, cell-based, Homo sapiens; settings: Homo sapiens, EKVX
Description: SANGER: Inhibition of human EKVX cell growth in a cell viability assay.

KP-N-YS = assay type: functional, cell-based, Homo sapiens; settings: Homo sapiens, KP-N-YS
Description: SANGER: Inhibition of human KP-N-YS cell growth in a cell viability assay.

U-87 MG = assay type: functional, cell-based, Homo sapiens, U-87MG ATCC; settings: Homo sapiens, U-87 MG
Description: SANGER: Inhibition of human U-87-MG cell growth in a cell viability assay.

TE-10 = assay type: functional, cell-based, Homo sapiens; settings: Homo sapiens, TE-10
Description: SANGER: Inhibition of human TE-10 cell growth in a cell viability assay.

## COc1ccc(-c2cc3nccn3c(Nc3ncccc3C(N)=O)n2)cc1OC
NCI-H720
  IC50: > 8 µM
LB831-BLC
  IC50: 1.02 µM
HD-MY-Z
  IC50: > 8 µM
GI-ME-N
  IC50: > 8 µM
ONS-76
  IC50: > 8 µM
NCI-H1650
  IC50: > 8 µM
CW-2
  IC50: > 8 µM
BB49-HNC
  IC50: 3.3 µM
MHH-NB-11
  IC50: > 8 µM
KM12
  IC50: 2.69 µM
MOLT-4
  IC50: 5.81 µM
CCRF-CEM
  IC50: 1.98 µM
AM-38
  IC50: > 8 µM
MEG-01
  IC50: 5.28 µM
LB996-RCC
  IC50: 1.7 µM
DEL
  IC50: 3.07 µM
A253 cell line
  IC50: > 8 µM
Lu-65
  IC50: 2.22 µM
RCC10RGB
  IC50: > 8 µM
KNS-81-FD
  IC50: > 8 µM
HL-60
  IC50: > 8 µM
SJSA-1
  IC50: 3.77 µM
D283 Med
  IC50: > 8 µM
HCC1187
  IC50: > 8 µM
PSN1
  IC50: 0.897 µM
NCI-H23
  IC50: > 8 µM
SK-PN-DW
  IC50: 5.37 µM
K5
  IC50: 2.93 µM
HT-144
  IC50: 3.72 µM
LXF-289 cell line
  IC50: > 8 µM
MHH-PREB-1
  IC50: 2.55 µM
UACC-257
  IC50: > 8 µM
NEC8
  IC50: 7.77 µM
MV4-11
  IC50: < 0.0312 µM
GR-ST
  IC50: 3.7 µM
J-RT3-T3-5
  IC50: 6.24 µM
COLO-829
  IC50: > 8 µM
NH-12
  IC50: 2.49 µM
LS-1034
  IC50: > 8 µM
KALS-1
  IC50: > 8 µM
KG-1
  IC50: 2.87 µM
SK-N-DZ
  IC50: > 8 µM
RPMI-8226
  IC50: > 8 µM
SK-LMS-1
  IC50: > 8 µM
EKVX
  IC50: > 8 µM
KP-N-YS
  IC50: 7 µM
U-87 MG
  IC50: > 8 µM
TE-10
  IC50: 1.76 µM
